Reference: US20220259202A1, “1-(4-(AMINOMETHYL)BENZYL)-2-BUTYL-2H-PYRAZOLO[3,4-C]QUINOLIN-4-AMINE DERIVATIVES AND RELATED COMPOUNDS AS TOLL-LIKE RECEPTOR (TLR) 7/8 AGONISTS, AS WELL AS ANTIBODY DRUG CONJUGATES THEREOF FOR USE IN CANCER THERAPY AND DIAGNOSIS” (SUTRO BIOPHARMA, INC., priority 2019, published 2022)

Assays:
Experiment in all cases: HEK293 SEAP reporter assay, other TLRs (Biological Example 3)
Type in all cases: cell-based
Conditions in all cases: 16 hrs, up to 1 μM
[1] = biological target: T1, mouse TLR4 (Mus musculus, UniProt Q9JHF9+Q9QUK6)
T1 construct: host or cells: HEK293
T1 sequence (Q9QUK6 26-835): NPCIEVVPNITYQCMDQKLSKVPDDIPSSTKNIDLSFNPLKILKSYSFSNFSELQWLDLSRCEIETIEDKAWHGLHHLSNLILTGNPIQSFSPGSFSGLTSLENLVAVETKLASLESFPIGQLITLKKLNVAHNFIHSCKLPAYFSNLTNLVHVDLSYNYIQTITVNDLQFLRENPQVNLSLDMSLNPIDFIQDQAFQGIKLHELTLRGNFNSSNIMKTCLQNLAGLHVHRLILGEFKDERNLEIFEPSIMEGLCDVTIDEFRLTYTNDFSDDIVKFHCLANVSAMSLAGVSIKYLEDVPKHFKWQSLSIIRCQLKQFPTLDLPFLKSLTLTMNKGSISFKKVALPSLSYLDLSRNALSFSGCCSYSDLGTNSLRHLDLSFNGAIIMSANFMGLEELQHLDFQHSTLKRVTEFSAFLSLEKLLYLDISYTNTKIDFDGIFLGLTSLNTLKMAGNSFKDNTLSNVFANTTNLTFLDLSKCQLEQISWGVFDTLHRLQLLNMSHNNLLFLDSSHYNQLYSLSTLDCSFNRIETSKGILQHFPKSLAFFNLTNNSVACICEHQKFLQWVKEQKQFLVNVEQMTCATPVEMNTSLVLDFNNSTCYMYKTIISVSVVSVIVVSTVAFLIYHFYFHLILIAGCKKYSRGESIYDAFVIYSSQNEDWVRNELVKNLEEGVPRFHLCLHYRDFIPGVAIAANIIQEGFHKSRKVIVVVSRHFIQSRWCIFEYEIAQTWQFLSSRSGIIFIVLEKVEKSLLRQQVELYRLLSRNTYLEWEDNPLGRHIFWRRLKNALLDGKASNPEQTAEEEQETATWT
T1 sequence (Q9JHF9 19-160): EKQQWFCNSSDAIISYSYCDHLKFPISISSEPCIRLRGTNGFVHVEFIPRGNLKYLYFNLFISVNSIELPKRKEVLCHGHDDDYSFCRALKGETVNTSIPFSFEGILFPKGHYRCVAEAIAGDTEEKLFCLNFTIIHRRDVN
From the text: (§1) In this example, the activity of the Compound 1 to stimulate different human and mouse TLR pathways was investigated on HEK293 cells transfected with inducible SEAP (secreted embryonic alkaline phosphatase) reporter genes and also expressing different human TLRs (TLR2, TLR3, TLR4, TLR5, TLR7, TLR8, TLRS) or mouse TLRs (TLR2, TLR3, TLR4, TLR5, TLR7, TLR8, TLR13). Compound A
(§2) HEK293 reporter cell lines were purchased from Invivogen and cell lines were maintained in manufacture recommended culture medium with required supplemental antibiotics. On the day of assay, the cells were harvested with Accutase and counted by the Vi-CELL Cell Viability Analyzers. Cells were re-suspended in HEK blue detection medium and a total of 10000 cells were seeded in each well of a 384-well flat bottom plate. […] Assay plates were cultured at 37° C. in a CO2 incubator for 16 hrs. HEK-Blue™ Detection medium changes to a purple/blue color in the presence of secreted SEAP, which can be detected by spectrophotometry at 620-655 nm. Data was fitted with non-linear regression analysis, using a log(inhibitor) vs. response-variable slope, 3-parameter fit with GraphPad Prism.

[2] = biological target: T2, mouse TLR2 (Mus musculus, UniProt Q9QUN7)
T2 construct: host or cells: HEK293
From the text: as §1, §2

[3] = biological target: T3, mouse TLR3 (Mus musculus, UniProt Q99MB1)
T3 construct: host or cells: HEK293
T3 sequence (Q99MB1 26-905): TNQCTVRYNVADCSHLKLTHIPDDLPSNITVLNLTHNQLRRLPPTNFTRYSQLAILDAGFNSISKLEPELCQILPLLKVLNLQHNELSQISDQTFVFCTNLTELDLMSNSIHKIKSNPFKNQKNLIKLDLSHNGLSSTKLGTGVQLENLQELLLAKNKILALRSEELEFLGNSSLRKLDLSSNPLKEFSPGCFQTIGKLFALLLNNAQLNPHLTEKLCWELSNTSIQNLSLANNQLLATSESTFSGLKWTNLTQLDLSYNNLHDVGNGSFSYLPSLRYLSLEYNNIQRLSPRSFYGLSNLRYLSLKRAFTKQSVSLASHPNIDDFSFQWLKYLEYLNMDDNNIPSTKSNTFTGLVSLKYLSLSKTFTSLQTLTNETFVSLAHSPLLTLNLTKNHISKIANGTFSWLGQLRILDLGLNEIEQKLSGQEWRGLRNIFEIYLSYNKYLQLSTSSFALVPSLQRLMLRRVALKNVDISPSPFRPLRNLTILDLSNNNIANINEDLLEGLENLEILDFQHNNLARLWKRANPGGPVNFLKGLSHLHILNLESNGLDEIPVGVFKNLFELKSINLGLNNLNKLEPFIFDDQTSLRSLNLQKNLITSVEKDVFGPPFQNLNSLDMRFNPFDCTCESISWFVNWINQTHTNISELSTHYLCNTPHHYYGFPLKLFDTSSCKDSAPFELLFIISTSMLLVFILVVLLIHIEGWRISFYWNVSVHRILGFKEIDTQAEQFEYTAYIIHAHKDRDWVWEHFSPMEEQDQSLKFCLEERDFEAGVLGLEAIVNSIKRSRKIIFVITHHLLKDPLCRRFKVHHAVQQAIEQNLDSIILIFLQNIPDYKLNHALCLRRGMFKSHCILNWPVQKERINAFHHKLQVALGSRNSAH
From the text: as §1, §2

Measured: EC50

T2 sequence (Q9QUN7 25-784): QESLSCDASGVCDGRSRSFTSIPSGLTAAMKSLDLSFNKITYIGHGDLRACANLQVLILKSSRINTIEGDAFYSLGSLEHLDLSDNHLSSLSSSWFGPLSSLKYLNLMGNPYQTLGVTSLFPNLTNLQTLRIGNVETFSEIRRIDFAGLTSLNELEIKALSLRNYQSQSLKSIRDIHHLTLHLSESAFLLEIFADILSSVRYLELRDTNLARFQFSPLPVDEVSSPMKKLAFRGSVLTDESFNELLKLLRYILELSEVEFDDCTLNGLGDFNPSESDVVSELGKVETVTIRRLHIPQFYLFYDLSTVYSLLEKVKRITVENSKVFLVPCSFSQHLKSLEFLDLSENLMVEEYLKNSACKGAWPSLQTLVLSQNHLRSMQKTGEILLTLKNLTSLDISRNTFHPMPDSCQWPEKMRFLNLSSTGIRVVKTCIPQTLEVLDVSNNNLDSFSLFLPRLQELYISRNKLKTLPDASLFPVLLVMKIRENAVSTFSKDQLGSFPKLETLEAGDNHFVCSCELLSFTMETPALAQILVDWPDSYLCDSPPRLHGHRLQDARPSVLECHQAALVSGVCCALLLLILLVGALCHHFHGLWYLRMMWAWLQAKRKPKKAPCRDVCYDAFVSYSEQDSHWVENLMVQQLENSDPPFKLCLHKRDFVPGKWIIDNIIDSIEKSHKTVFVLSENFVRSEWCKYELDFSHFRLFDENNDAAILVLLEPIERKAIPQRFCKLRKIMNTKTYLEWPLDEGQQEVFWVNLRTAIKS

CCCCc1nc2c(N)nc3ccccc3c2n1Cc1ccc(CN)cc1 [Compound A, reference compound]
> 1000 nM: all assays above

CCCCn1nc2c(N)nc3ccccc3c2c1Cc1ccc(CN)cc1 [Compound 1, 1-(4-(aminomethyl)benzyl)-2-butyl-2H-pyrazolo[3,4-c]quinolin-4-amine]
> 1000 nM: all assays above
